Results on 2 molecules are retold here after patent US10420339B2, “Aqueous fungicidal composition and use thereof for combating harmful micro organisms” (BASF SE, priority 2004, dated 2019).

Test [1] relates to Coniophora puteana BAM Ebw. 15. Description: Bravery test (closely based on EN 113) on impregnated wood test specimens, preventive effect against wood-destroying fungi. Format: cell-based. Particulars: test fungus CP, Pinus spp. (southern yellow pine) specimens 40x15x4 mm, loss in weight after 6 weeks, <3% by weight = satisfactory; for Limits of the effectiveness, with leaching (EN 84): with leaching according to EN 84. Here is the method:
(§1) The limits of the effectiveness of the compositions according to the invention with regard to wood-destroying basidiomycetes were determined on wood test specimens of Pinus spp. (southern yellow pine) with the dimensions 40×15×4 mm. The test method on comminuted wood test specimens, known as the Bravery test, is closely based on EN 113 and is used to determine the preventive effect of wood preservatives against wood-destroying fungi (see in this connection A. F. Bravery, Intern. Res. Group Wood Pres., Doc. No. IRG/WP/2113, 5S., Stockholm, 1978). The wood test specimens impregnated with the composition according to the invention were tested without or with the constraint of leaching according to EN 84. […] Coniophora puteana BAM Ebw. 15 and Poria placenta FPRL 280 were used as test fungi. The destruction of the wood caused by fungal infection was registered by the loss in weight of the test woods, which was determined after 6 weeks. […] The concentration limit of the effectiveness is given in two concentrations. […] The limits of the effectiveness are represented in table 4. For comparison, the values determined for a solution of the active substance in acetone are given.

Another test relates to Poria placenta FPRL 280. Described as above. Format: cell-based. As to conditions: test fungus PP, Pinus spp. (southern yellow pine) specimens 40x15x4 mm, loss in weight after 6 weeks, <3% by weight = satisfactory; for Limits of the effectiveness, with leaching (EN 84): with leaching according to EN 84. Here is the method: as §1

Where only a bound is given, the exact number is not on record here.

On to `Fc1ccc([C@]2(Cn3cncn3)O[C@H]2c2ccccc2Cl)cc1` (racemic) [Solution of epoxiconazole, epoxiconazole], for which, in test [1], the “Limits of the effectiveness, with leaching (EN 84)” value (“Limits … (EN 84)” for short) is reported as 0.11-0.16 kg/m^3 and the “Limits of the effectiveness, without leaching” value (from here on “Limits … without leaching”) was below 0.19 kg/m^3. Also, in the test on Poria placenta FPRL 280, the “Limits … (EN 84)” value is reported as 0.11-0.18 kg/m^3 and the “Limits … without leaching” value is recorded as below 0.19 kg/m^3.
With `CC(C)(C)C(O)(CCc1ccc(Cl)cc1)Cn1cncn1` (centres unmarked) [Solution of tebuconazole, tebuconazole], in test [1], the “Limits … (EN 84)” value was below 0.054 kg/m^3 and the “Limits … without leaching” value is reported as below 0.052 kg/m^3. In the test on Poria placenta FPRL 280, the “Limits … (EN 84)” value is recorded as 0.095-0.152 kg/m^3 and the “Limits … without leaching” value is 0.102-0.153 kg/m^3.
